Test system: oxaliplatin induced hyperalgesia in the rat
Assay: Oxaliplatin induced hyperalgesia in the rat paw-pressure test
Type: in vivo
Conditions: for Paw pressure, pre-test before all treatments: baseline, drug 100 mg/kg p.o.; for Paw pressure, 1a week - 30 min / Paw pressure, 2a week - 30 min / Paw pressure, 3a week - 30 min / Paw pressure, 3a week - 4 h / Paw pressure, 3a week - 8 h / Paw pressure, 3a week - 24 h: drug 100 mg/kg p.o. once daily
Description: Drugs: The following substance was used: NT-13317 (batch No. RR0011-184A1 supplied by Brane Discovery Srl, Gerenzano Italy). NT-13317 was dissolved in DMSO 20%, 10% glucose and administered at the dose of 10, 30 and 100 mg/kg p.o.
Gabapentin (Sigma) was dissolved in 1% CMC (carboxymethylcellulose-Sigma) and orally administered at 100 mg/kg, and dissolved in saline and i.v. administered at 3 mg/kg.
Oxaliplatin model: A peripheral neuropathy was induced in adult rats, by administration of oxaliplatin (Tocris), at 2.4 mg/kg i.p. in saline once a day on days 1, 2, 3, 4, 5, 8, 9, 10, 11, 12, 15, 16, 17, 18, 19 (cumulative dose 36 mg/kg) according to [1].
In the first experiment NT-13317 and gabapentin were given chronically at the dose 100 mg/kg po starting 3 days before oxaliplatin and every day for 5 days/week for 3 weeks.
A dose-response experiment was then performed with NT-13317 (10, 30 and 100 mg/kg po) using the same treatment schedule.
Paw pressure test: Paw mechanical sensitivity was determined using a Randall & Selitto apparatus exerting a force that increases at constant rate (32 g/s). The stimulus at which rats withdrawn the paw was evaluated before and at different times after treatment. Results represent the mean of mechanical thresholds expressed as grams. To avoid any possible damage to the animal paw the maximum applied force was fixed at 240 g.
Statistical analysis: All experimental results are given as the mean±S.E.M. An analysis of variance, ANOVA, followed by Fisher's protected least significant difference procedure for post hoc comparison, were used to verify significance between two means of behavioral results. Data were analyzed with the StatView software for the Macintosh (1992). P values≦0.05 were considered significant.

Structure (SMILES): NCC1(CC(=O)O)CCCCC1 [GABAPENTIN, Gabapentin, reference compound]
- Reduction of mechanical hyperalgesia over three weeks of treatment (in words) (100 mg/kg p.o. once daily, 5 days/week for 3 weeks): much lower effect only at the end of the third week
- Pharmacodynamic profile at the end of the third week (gabapentin 100 mg/kg p.o.): sporadic, intermediate efficacy at 30 min
- Paw pressure, pre-test before all treatments (oxaliplatin i.p. group): 61.1 ± 4.0 g
- Paw pressure, 1a week - 30 min (oxaliplatin i.p.): 47.8 ± 5.6 g
- Paw pressure, 2a week - 30 min (oxaliplatin i.p.): 49.0 ± 5.5 g
- Paw pressure, 3a week - 30 min (oxaliplatin i.p.): 59.5 ± 5.5 g
- Paw pressure, 3a week - 4 h (oxaliplatin i.p.): 55.6 ± 4.2 g
- Paw pressure, 3a week - 8 h (oxaliplatin i.p.): 43.8 ± 6.1 g
- Paw pressure, 3a week - 24 h (oxaliplatin i.p.): 42.2 ± 5.5 g
- Paw pressure, pre-test before all treatments (vehicle i.p. (no oxaliplatin) group): 62.7 ± 3.9 g
- Paw pressure, 1a week - 30 min (vehicle i.p. (no oxaliplatin)): 65.6 ± 4.9 g
- Paw pressure, 2a week - 30 min (vehicle i.p. (no oxaliplatin)): 73.7 ± 5.2 g
- Paw pressure, 3a week - 30 min (vehicle i.p. (no oxaliplatin)): 82.3 ± 5.2 g
- Paw pressure, 3a week - 4 h (vehicle i.p. (no oxaliplatin)): 76.2 ± 4.8 g
- Paw pressure, 3a week - 8 h (vehicle i.p. (no oxaliplatin)): 78.2 ± 5.6 g
- Paw pressure, 3a week - 24 h (vehicle i.p. (no oxaliplatin)): 68.7 ± 5.9 g

Source: patent US9125898B2, “Acetam derivatives for pain relief” (NEUROTUNE AG, priority 2008, dated 2015)
